A short description of the data set: in vitro. The conditions noted are these: rat, gh3-tre-luc cells.

The structures appear in SMILES notation. Counter-ions that a name gives are not always drawn.

61 compounds from article PMC6792352, “Limited Chemical Structural Diversity Found to Modulate Thyroid Hormone Receptor in the Tox21 Chemical Library” (Environmental Health Perspectives, 2019) can be followed below.

As usually defined, the CC50 is the concentration giving 50% cytotoxicity.

Turning to `CNP(=O)(OC)Oc1ccc(C(C)(C)C)cc1Cl` (stereo not shown) [Crufomate], the cytotoxic concentration (CC50) at 24 h (AC50 (uM) modified / 1000, Tox21_110001=Tox21_302262, viability, 1 nM T3 present, 24 h) is over 90 µM. On to `CCCCCCCCCCCCCC` [Tetradecane], for which the CC50 at 24 h (AC50 (uM) modified / 1000) was over 90 µM. On the same count and under the same terms, next, `Nc1nc(N)c2nc(CNc3ccc(C(=O)N[C@@H](CCC(=O)O)C(=O)O)cc3)cnc2n1` [4-Aminofolic acid]: over 50 µM. Still for that read-out and setting: the figure for `Fc1cccc(Cl)c1CCl` [1-Chloro-2-(chloromethyl)-3-fluorobenzene] is over 90 µM.

Compound `[O-][n+]1ccc(Cl)cc1` [4-Chloropyridine 1-oxide] returned a 50% cytotoxic concentration (CC50) at 24 h (AC50 (uM) modified / 1000) of over 100 µM. Compound `Nc1cc(S(=O)(=O)O)ccc1S(=O)(=O)O` [2-Aminobenzene-1,4-disulfonic acid] came in with a CC50 at 24 h (AC50 (uM) modified / 1000) of over 90 µM.

Take `CCC(=O)OC/C=C/c1ccccc1` [(2E)-3-Phenylprop-2-en-1-yl propanoate]: where the note is “AC50 (uM) modified / 1000”, the CC50 at 24 h is over 90 µM. Same read-out and setting: the figure for `CC(=O)NO` [Acetohydroxamic acid] is over 50 µM; for `CCCN(CCC)C(=O)C(CCC(=O)O)NC(=O)c1ccccc1` (stereo not shown) [Proglumide] it is over 50 µM; for `CCCCOCCOCCOC(C)=O` [2-(2-Butoxyethoxy)ethyl acetate] it is over 90 µM. Compound `O=C(O)CCNC(=O)c1ccccc1` [Betamipron] returned a CC50 at 24 h (AC50 (uM) modified / 1000) of over 50 µM.

Consider `COc1ccc(C(=O)N2CCN(CC(=O)N3CCOCC3)CC2)cc1` [Molracetam], for which, under “AC50 (uM) modified / 1000”, the CC50 at 24 h was over 50 µM.

In turn, `COc1c2ccoc2cc2oc(=O)ccc12` [5-Methoxypsoralen] gave a CC50 at 24 h (AC50 (uM) modified / 1000) of over 90 µM. On the same count and under the same terms, the figure for `O=NN1CCNCC1` [N-Nitrosopiperazine] is over 100 µM. Under “AC50 (uM) modified / 1000”, `CN/C(=N/CCSCc1nc[nH]c1C)NC#N` [Cimetidine] displayed a CC50 at 24 h of over 90 µM. Still for that read-out and setting: next, `CC1(C)Oc2ccc(C#N)cc2[C@@H](N2CCCC2=O)[C@@H]1O` [Levcromakalim]: over 50 µM; `CCOCCO` [2-Ethoxyethanol]: over 90 µM; `COc1ccc(Cl)cc1C` [4-Chloro-2-methylanisole]: over 100 µM.

Consider `ClC(Cl)Br` [Bromodichloromethane], for which the CC50 at 24 h (AC50 (uM) modified / 1000, Tox21_110001=Tox21_200806, viability, 1 nM T3 present, 24 h) was over 90 µM. In turn, `C[N+](=O)[O-]` [Nitromethane] yielded a CC50 at 24 h (AC50 (uM) modified / 1000, Tox21_110001=Tox21_200822, viability, 1 nM T3 present, 24 h) of over 90 µM. Where the note is “AC50 (uM) modified / 1000”, `C=CCN1CCCC1CNC(=O)c1cc(S(N)(=O)=O)cc(OC)c1OC` (stereo not shown) [Veralipride] came in with a cytotoxic concentration (CC50) at 24 h of over 50 µM.

As to `NC(=O)Nc1ccc(Cl)c(Cl)c1` [3,4-Dichlorophenylurea], the CC50 at 24 h (AC50 (uM) modified / 1000) was over 90 µM.

As to `CC(=O)CCC=C(C)C` [6-Methyl-5-hepten-2-one], the half-maximal cytotoxic concentration (CC50) at 24 h (AC50 (uM) modified / 1000) was over 90 µM. Compound `Brc1ccc(Br)cc1` [1,4-Dibromobenzene] displayed a CC50 at 24 h (AC50 (uM) modified / 1000, Tox21_110001=Tox21_201288, viability, 1 nM T3 present, 24 h) of over 90 µM. For the setting “AC50 (uM) modified / 1000”, `CCOc1cc(N)c(Cl)cc1C(=O)NCC1CN(Cc2ccc(F)cc2)CCO1` (stereo not shown) [Mosapride citrate] registered a 50% cytotoxic concentration (CC50) at 24 h of over 50 µM. On the same count and under the same terms, the figure for `C=CCCCCCC` [1-Octene] is over 90 µM; for `CC(=O)Nc1cccc(C)c1` [N-Acetyl-m-toluidine] it is over 90 µM; for `CCCCC/C=C\C/C=C\C/C=C\CCCCC(=O)O` [Gamolenic acid] it is over 50 µM. Still for that read-out and setting: the figure for `CC1=C[C@H](O)CC(C)(C)[C@H]1/C=C/C(C)=C/C=C/C(C)=C/C=C/C=C(C)/C=C/C=C(C)/C=C/C1=C(C)C[C@@H](O)CC1(C)C` [Lutein] is 28.4 µM; for `Cc1cccc(C(=O)O)c1[N+](=O)[O-]` [3-Methyl-2-nitrobenzoic acid] it is over 90 µM; for `CCOC(=O)Nc1ccc2c(c1)N(C(=O)CN(C)C)c1ccccc1CC2` [Tiracizine] it is 41.3 µM. On the same count and under the same terms, next, `CN=C=O` [Methyl isocyanate]: over 90 µM; `CC(=O)OC(c1ccccc1)C(Cl)(Cl)Cl` (stereo not shown) [2,2,2-Trichloro-1-phenylethyl acetate]: over 90 µM; `CN(C)CCCOc1nn(Cc2ccccc2)c2ccccc12` [Benzydamine hydrochloride]: 6.35 µM.

`O=C(/C=C/c1cccc(F)c1)NC1CC1` [Cinflumide] gave a cytotoxic concentration (CC50) at 24 h (AC50 (uM) modified / 1000) of over 50 µM. Turning to `c1ccc(Nc2ccccc2)cc1` [Diphenylamine], the half-maximal cytotoxic concentration (CC50) at 24 h (AC50 (uM) modified / 1000) was over 90 µM. Still for that read-out and setting: the figure for `CCNCC(O)c1cccc(O)c1` (stereo not shown) [Etilefrine hydrochloride] is over 20 µM; for `COc1ccc(CCN(C)CCCC(C#N)(c2ccc(OC)c(OC)c2)C(C)C)cc1OC` (stereo not shown) [Verapamil hydrochloride] it is 24.5 µM. The same measure, in the same setting: next, `c1ccc2c(c1)ccc1ncccc12` [Benzo(f)quinoline]: over 90 µM.

Under “AC50 (uM) modified / 1000”, `Cn1nnnc1SCC1=C(C(=O)O)N2C(=O)[C@@H](NC(=O)[C@H](OC=O)c3ccccc3)[C@H]2SC1` [Cefamandole nafate] displayed a cytotoxic concentration (CC50) at 24 h of over 50 µM. Take `CC(C)=CC=O` [3-Methylbut-2-enal]: the 50% cytotoxic concentration (CC50) at 24 h (AC50 (uM) modified / 1000) was over 100 µM.

The compound `O=C(O)C(=O)Cc1ccccc1` [Phenylpyruvic acid] showed a half-maximal cytotoxic concentration (CC50) at 24 h (AC50 (uM) modified / 1000) of over 90 µM. On the same count and under the same terms, the figure for `CCCCCC(C)=O` [2-Heptanone] is over 90 µM; for `CC1OCCC1=O` (stereo not shown) [2-Methyldihydrofuran-3(2H)-one] it is over 90 µM.

Compound `CCOC(=O)c1nc(C(Cl)(Cl)Cl)n(-c2ccc(Cl)cc2Cl)n1` [Fenchlorazole-ethyl] returned a CC50 at 24 h (AC50 (uM) modified / 1000) of 52.1 µM. Still for that read-out and setting: the figure for `O=C(Cl)c1ccccc1F` [2-Fluorobenzoyl chloride] is over 90 µM; for `OC[C@@H](O)[C@@H](O[C@@H]1O[C@H](CO)[C@H](O)[C@H](O)[C@H]1O)[C@H](O)[C@@H](O)CO` [D-Lactitol monohydrate] it is over 90 µM.

The compound `C=C[C@H]1CN2CC[C@H]1C[C@H]2[C@H](OC(=O)OCC)c1ccnc2ccc(OC)cc12` [Quinine ethyl carbonate] yielded a CC50 at 24 h (AC50 (uM) modified / 1000) of over 50 µM.

`CN(C)C/C=C(/c1ccc(Br)cc1)c1cccnc1` [Zimeldine dihydrochloride hydrate]: it took 35.2 µM to reach half-maximal cytotoxicity (AC50 (uM) modified / 1000) (CC50 at 24 h). The same measure, in the same setting: the figure for `COc1ccccc1N=Nc1c(S(=O)(=O)O)cc2cc(S(=O)(=O)O)cc(NC(C)=O)c2c1O` [C.I. Acid Violet 12, disodium salt] is 36.9 µM; for `CNC(=O)O/N=C/C(C)(C)SC` [Aldicarb] it is over 90 µM; for `CC(C)C1CCC(Cc2ccc(Cl)cc2)C1(O)Cn1cncn1` (stereo not shown) [Ipconazole] it is 41.7 µM.

As to `CC(C)COC(=O)CC(C(=O)OCC(C)C)S(=O)(=O)O` (stereo not shown) [Sodium 1,4-diisobutyl sulfosuccinate], the half-maximal cytotoxic concentration (CC50) at 24 h (AC50 (uM) modified / 1000) was over 90 µM. On the same count and under the same terms, next, `CC(C)CCCCCCCOC(=O)c1ccccc1C(=O)OCCCCCCCC(C)C` [Diisodecyl phthalate]: over 90 µM. On the same count and under the same terms, next, `OC/C=C/c1ccccc1` [3-Phenyl-2-propen-1-ol]: over 100 µM; `CN(C)CCC=C1c2ccccc2COc2ccccc21` [Doxepin hydrochloride]: 13.5 µM. `CCO[Si](CCCN=C=O)(OCC)OCC` [(3-Isocyanatopropyl)triethoxysilane]: under “AC50 (uM) modified / 1000”, the 50% cytotoxic concentration (CC50) at 24 h is over 90 µM.

`Oc1c(Cl)c(Cl)cc(Cl)c1Cl` [2,3,5,6-Tetrachlorophenol] showed a CC50 at 24 h (AC50 (uM) modified / 1000, Tox21_110001=Tox21_200910, viability, 1 nM T3 present, 24 h) of 65.8 µM. With `C=CC(=O)OCC[N+](C)(C)C` [2-(Dimethylamino)ethyl acrylate methochloride], for the setting “AC50 (uM) modified / 1000”, the CC50 at 24 h is over 90 µM. With `CCC(C)c1cc(C(C)(C)C)c(O)c(C(C)(C)C)c1` (stereo not shown) [4-(Butan-2-yl)-2,6-di-tert-butylphenol], the cytotoxic concentration (CC50) at 24 h (AC50 (uM) modified / 1000) is over 90 µM. Still for that read-out and setting: the figure for `CCC(C)(C)c1cc(O)c(C(C)(C)CC)cc1O` [2,5-Bis(2-methylbutan-2-yl)benzene-1,4-diol] is 53.8 µM.
